Each structure is given as a SMILES string. Entries after “also recorded” stand apart in the source; their conditions may differ.

The subject of experiment [1] is genome-wide H3K4me3. The experiment in a line: ChIP-seq of H3K4me3 in spleen cells of treated mice. The format is in vivo, mouse. Conditions: 10 mg/kg/day, spleen cells of Kmt2d+/βGeo mice. The protocol:
Spleens were dissected from eight mice, four from each kmt2d genotype (+/βGeo or +/+) where half of each genotype was treated with AR-42 and half with vehicle only. Spleens were minced and passed through a 40 μm cell strainer to obtain single cell suspensions. 10 million cells were used for each ChIP-seq experiment following the native chromatin immunoprecipitation protocol, as previously described (Gilfillan et al. (2012) BMC Genomics 13:645), using a ChIP-grade antibody against H3K4me3 (9727, Cell Signaling Technology, Beverly, Mass.).
Sequencing was performed using a MiSeq system (Illumina, San Diego, Calif.). 4.8-9.6 million paired-end 26 bp reads were obtained per sample (Table 1; nReads=number of reads, alignRate=fraction aligned to genome; FRIP=fraction of reads in peaks). Reads were aligned to the m. musculus genome, version mm10, using Bowtie 2 (Langmead and Salzberg (2012) Nat. Methods. 9: 357-9). Each sample was examined with regard to alignment rate as well as FRIP (fraction of reads in peaks), a measure of the ChIP efficiency (Table 1). […] For analysis, reads were merged into one meta-sample and peak calling was performed using MACS version 1.4.2 (Zhang et al. (2008) Genome Biol. 9: R137). […] This created a peak by sample matrix of read counts. […] Fold change and overall abundance was calculated as per edgeR. […]

Experiment [2] deals with H3K4me3 in the GCL. Briefly: Immunofluorescence of H3K4me3 in dentate gyrus GCL after oral AR-42. The format is in vivo, mouse. The text has this:
Kmt2d^+/βGeo mice, also named Mll2Gt^(RRt024)Byg, were acquired from Bay Genomics (University of California). All experimental mice were on a mixed C57BL/6J and 129/SvEv background. Expected Mendelian ratios were observed when heterozygous animals were bred to wild-type. In heterozygous crosses, however, there was uniform embryonic lethality of homozygotes by ED12, the earliest developmental stage assayed. For treatment with AR-42, mice were orally gavaged daily with drug (Selleck Chemicals, Houston, Tex.) solubilized in vehicle (0.5% methylcellulose, 0.1% Tween-80, water) or with vehicle alone. Drug delivery information was kindly provided by Drs. […] For quantification of DCX positive cells, doses of 0, 5, 10 and 25 mg/kg/day were used. […] Maxillary protrusion was evaluated by ten investigators blinded to genotype and they were asked to rate maxillary protrusion on radiographs as either large (2) or small (1). […]
Z-stack images of slides were taken at either 10× using Zeiss Axiovert 200 with 510-Meta confocal module (Carl Zeiss, Jena, GER) or 25× using Zeiss AxioExaminer with 710NLO-Meta multiphoton (Carl Zeiss, Jena, GER). From 10× pictures, the GCL was highlighted and fluorescent intensities for both DAPI and H3K4me3 were measured at the midpoint of the entire z-stack (Zen software, Carl Zeiss, Jena, GER) with the value for Kmt2d^+/+ animals set equal to one. […]

`CC(C)[C@H](C(=O)Nc1ccc(C(=O)NO)cc1)c1ccccc1` [AR-42]: the “genome-wide deficiency of H3K4me3 (ChIP-seq)” value in experiment [1] is “genome-wide increase in H3K4me3; also recorded: overcorrection; also recorded: improved; also recorded: recovered; also recorded: normalized (but somewhat over corrected)”. Also, the “H3K4me3 in the GCL” value in experiment [2] (25 mg/kg/day, oral, two weeks) is given as “increased H3K4 trimethylation; also recorded: increased H3K4me3”; in experiment [2] (5 and 10 mg/kg/day, both genotypes) it was “dose-dependent increase in H3K4me3”.

For the origin of these results see US10246498B2, “Genetically encoded histone reporter allele constructs” (THE JOHNS HOPKINS UNIVERSITY, priority 2014, dated 2019).
